Assay results taken from the NIST ThermoML archive (doi:10.1016/j.jct.2010.10.016).

Experiment: xn = mol fraction of the nth substance listed
Settings: 101 kPa, Liquid; for viscosity: Capillary tube (Ostwald / Ubbelohde) method; for mass density: Pycnometric method; for speed of sound: Resonance method

CCCCOCCO [2-butoxyethan-1-ol] + C[N+](=O)[O-]
Settings	mass density [kg/m3]	speed of sound [m/s]	viscosity [mPa·s]
293.15 K, x2 = 0	901.19	1323.9	3.239
293.15 K, x2 = 0.05	905.83	–	–
293.15 K, x2 = 0.0507	–	1322.4	–
293.15 K, x2 = 0.0557	–	–	3.019
293.15 K, x2 = 0.0999	910.77	–	–
293.15 K, x2 = 0.1001	–	1321.8	–
293.15 K, x2 = 0.106	–	–	2.815
293.15 K, x2 = 0.1974	–	–	2.451
293.15 K, x2 = 0.2	921.75	–	–
293.15 K, x2 = 0.2003	–	1318.8	–
293.15 K, x2 = 0.3	934.29	–	–
293.15 K, x2 = 0.3003	–	1316.1	–
293.15 K, x2 = 0.3083	–	–	2.031
293.15 K, x2 = 0.4	948.84	–	–
293.15 K, x2 = 0.4005	–	1313.7	–
293.15 K, x2 = 0.4014	–	–	1.716
293.15 K, x2 = 0.4487	–	–	1.571
293.15 K, x2 = 0.4997	–	–	1.432
293.15 K, x2 = 0.5	966.21	–	–
293.15 K, x2 = 0.5002	–	1312	–
293.15 K, x2 = 0.5492	–	–	1.307
293.15 K, x2 = 0.5947	–	–	1.203
293.15 K, x2 = 0.6	987.24	1311.8	–
293.15 K, x2 = 0.699	–	–	0.996
293.15 K, x2 = 0.7	1013.09	1313.7	–
293.15 K, x2 = 0.7999	–	1318.2	–
293.15 K, x2 = 0.8002	1045.18	–	–
293.15 K, x2 = 0.8012	–	–	0.838
293.15 K, x2 = 0.8981	–	–	0.72
293.15 K, x2 = 0.8999	1085.39	1326.4	–
293.15 K, x2 = 0.9475	–	–	0.679
293.15 K, x2 = 0.95	–	1332.4	–
293.15 K, x2 = 0.9503	1109.89	–	–
298.15 K, x2 = 0	896.29	1306.8	–
298.15 K, x2 = 0.05	900.85	–	–
298.15 K, x2 = 0.0507	–	1305.6	–
298.15 K, x2 = 0.0999	905.68	–	–
298.15 K, x2 = 0.1001	–	1304.5	–
298.15 K, x2 = 0.2	916.48	–	–
298.15 K, x2 = 0.2003	–	1302.2	–
298.15 K, x2 = 0.3	928.9	–	–
298.15 K, x2 = 0.3003	–	1299.6	–
298.15 K, x2 = 0.4	943.34	–	–
298.15 K, x2 = 0.4005	–	1297.2	–
298.15 K, x2 = 0.5	960.53	–	–
298.15 K, x2 = 0.5002	–	1295.5	–
298.15 K, x2 = 0.6	981.35	1295.2	–
298.15 K, x2 = 0.7	1006.9	1296.8	–
298.15 K, x2 = 0.7999	–	1300.9	–
298.15 K, x2 = 0.8002	1038.68	–	–
298.15 K, x2 = 0.8999	1078.61	1308.5	–
298.15 K, x2 = 0.95	–	1313.8	–
298.15 K, x2 = 0.9503	1103.01	–	–
298.45 K, x2 = 0	–	–	2.825
298.45 K, x2 = 0.0506	–	–	2.654
298.45 K, x2 = 0.1012	–	–	2.483
298.45 K, x2 = 0.2015	–	–	2.165
298.45 K, x2 = 0.2997	–	–	1.873
298.45 K, x2 = 0.4047	–	–	1.581
298.45 K, x2 = 0.4498	–	–	1.464
298.45 K, x2 = 0.5008	–	–	1.339
298.45 K, x2 = 0.5481	–	–	1.234
298.45 K, x2 = 0.5976	–	–	1.131
298.45 K, x2 = 0.6984	–	–	0.943
298.45 K, x2 = 0.7981	–	–	0.8
298.45 K, x2 = 0.8986	–	–	0.689
298.45 K, x2 = 0.9394	–	–	0.655
303.15 K, x2 = 0	892.35	1290.6	2.449
303.15 K, x2 = 0.05	896.7	–	–
303.15 K, x2 = 0.0507	–	1289.5	–
303.15 K, x2 = 0.0522	–	–	2.307
303.15 K, x2 = 0.0999	901.4	–	–
303.15 K, x2 = 0.1001	–	1288.6	–
303.15 K, x2 = 0.1004	–	–	2.171
303.15 K, x2 = 0.2	911.94	–	–
303.15 K, x2 = 0.2003	–	1286.3	–
303.15 K, x2 = 0.2155	–	–	1.85
303.15 K, x2 = 0.299	–	–	1.635
303.15 K, x2 = 0.3	924.13	–	–
303.15 K, x2 = 0.3003	–	1283.6	–
303.15 K, x2 = 0.3996	–	–	1.399
303.15 K, x2 = 0.4	938.41	–	–
303.15 K, x2 = 0.4005	–	1281.1	–
303.15 K, x2 = 0.4495	–	–	1.292
303.15 K, x2 = 0.5	955.38	–	–
303.15 K, x2 = 0.5002	–	1279.2	1.191
303.15 K, x2 = 0.5482	–	–	1.102
303.15 K, x2 = 0.5993	–	–	1.01
303.15 K, x2 = 0.6	975.84	1278.5	–
303.15 K, x2 = 0.6998	–	–	0.858
303.15 K, x2 = 0.7	1000.85	1279.5	–
303.15 K, x2 = 0.7994	–	–	0.738
303.15 K, x2 = 0.7999	–	1282.9	–
303.15 K, x2 = 0.8002	1032.09	–	–
303.15 K, x2 = 0.8999	1071.54	1288.9	–
303.15 K, x2 = 0.9005	–	–	0.648
303.15 K, x2 = 0.9436	–	–	0.619
303.15 K, x2 = 0.95	–	1293.2	–
303.15 K, x2 = 0.9503	1095.83	–	–
308.15 K, x2 = 0	887.83	1273.5	2.079
308.15 K, x2 = 0.05	891.97	–	–
308.15 K, x2 = 0.0501	–	–	1.967
308.15 K, x2 = 0.0507	–	1273.1	–
308.15 K, x2 = 0.0999	896.44	–	–
308.15 K, x2 = 0.1001	–	1272.2	–
308.15 K, x2 = 0.1048	–	–	1.844
308.15 K, x2 = 0.198	–	–	1.639
308.15 K, x2 = 0.2	906.69	–	–
308.15 K, x2 = 0.2003	–	1270.2	–
308.15 K, x2 = 0.3	918.65	–	–
308.15 K, x2 = 0.3003	–	1267.9	–
308.15 K, x2 = 0.3012	–	–	1.427
308.15 K, x2 = 0.3999	–	–	1.243
308.15 K, x2 = 0.4	932.71	–	–
308.15 K, x2 = 0.4005	–	1265.9	–
308.15 K, x2 = 0.4502	–	–	1.154
308.15 K, x2 = 0.4998	–	–	1.071
308.15 K, x2 = 0.5	949.47	–	–
308.15 K, x2 = 0.5002	–	1264.2	–
308.15 K, x2 = 0.5499	–	–	0.991
308.15 K, x2 = 0.5998	–	–	0.917
308.15 K, x2 = 0.6	969.67	1263.4	–
308.15 K, x2 = 0.6994	–	–	0.786
308.15 K, x2 = 0.7	994.45	1264.3	–
308.15 K, x2 = 0.7997	–	–	0.685
308.15 K, x2 = 0.7999	–	1267.3	–
308.15 K, x2 = 0.8002	1025.45	–	–
308.15 K, x2 = 0.8986	–	–	0.616
308.15 K, x2 = 0.8999	1064.77	1273.2	–
308.15 K, x2 = 0.9465	–	–	0.59
308.15 K, x2 = 0.95	–	1276.9	–
308.15 K, x2 = 0.9503	1089.08	–	–
313.15 K, x2 = 0	883.59	1257.7	1.689
313.15 K, x2 = 0.05	887.43	–	–
313.15 K, x2 = 0.0507	–	1257.4	–
313.15 K, x2 = 0.0511	–	–	1.606
313.15 K, x2 = 0.0999	891.75	–	–
313.15 K, x2 = 0.1001	–	1256.8	–
313.15 K, x2 = 0.1135	–	–	1.493
313.15 K, x2 = 0.2	901.79	–	–
313.15 K, x2 = 0.2003	–	1254.9	–
313.15 K, x2 = 0.2156	–	–	1.314
313.15 K, x2 = 0.2993	–	–	1.18
313.15 K, x2 = 0.3	913.58	–	–
313.15 K, x2 = 0.3003	–	1252.7	–
313.15 K, x2 = 0.3971	–	–	1.042
313.15 K, x2 = 0.4	927.46	–	–
313.15 K, x2 = 0.4005	–	1250.6	–
313.15 K, x2 = 0.4497	–	–	0.974
313.15 K, x2 = 0.4973	–	–	0.915
313.15 K, x2 = 0.5	943.98	–	–
313.15 K, x2 = 0.5002	–	1248.8	–
313.15 K, x2 = 0.5458	–	–	0.858
313.15 K, x2 = 0.5989	–	–	0.798
313.15 K, x2 = 0.6	963.96	1248	–
313.15 K, x2 = 0.6958	–	–	0.698
313.15 K, x2 = 0.7	988.46	1248.7	–
313.15 K, x2 = 0.7999	–	1251.4	–
313.15 K, x2 = 0.8002	1018.86	–	–
313.15 K, x2 = 0.8004	–	–	0.617
313.15 K, x2 = 0.893	–	–	0.572
313.15 K, x2 = 0.8999	1057.69	1256.3	–
313.15 K, x2 = 0.9491	–	–	0.556
313.15 K, x2 = 0.95	–	1259.5	–
313.15 K, x2 = 0.9503	1081.78	–	–
